Measured values reported in patent US8211901B2, “Naphthamide derivatives as multi-target protein kinase inhibitors and histone deacetylase inhibitors” (Shenzhen Chipscreen Biosciences Ltd., priority 2009, dated 2012).

Columns and labels:
human PDGFRβ = target: T1, human PDGFRβ (Homo sapiens, UniProt P09619); experiment: PDGF dependent cell proliferation (MTS); type: cell-based; settings: PDGFRβ NIH-3T3 cells, PDGF BB 50 ng/ml, 72 hours, serum-free medium; read-out: GI50 nM (PDGF ligand-dependent cell proliferation)
T1 construct: expressed in transfected cells
Description: PDGF Dependent Cell Proliferation:
NIH-3T3 mouse fibroblasts cell line engineered to stably express human PDGFIRβ was constructed and used to evaluate PDGF dependent cell proliferation. PDGFRβ NIH-3T3 cells were plated into 96-well plates at 5,000 per well and incubated with serum-free medium for 24 hours. Compounds and PDGF BB (50 ng/ml) were added and incubated for 72 hours in serum-free medium. The effects on proliferation were determined by addition of MTS reagent (Promega) according to the instruction, incubation for 2 hours at 37° C. in CO2 incubator, and record the absorbance at 490 nm using an ELISA plate reader.

HUVEC cells = experiment: VEGF dependent cell proliferation (MTS); type: cell-based; settings: Homo sapiens, VEGF 165 50 ng/ml, 72 hours, serum-free medium, read-out: GI50 nM (VEGF ligand-dependent cell proliferation)
Description: VEGF Dependent Cell Proliferation:
HUVEC cells were plated into 96-well plates at 6,000 per well and incubated with serum-free medium for 2 hours. Compounds and VEGF 165 (50 ng/ml) were added and incubated for 72 hours in serum-free medium. The effects on proliferation were determined by addition of MTS reagent (Promega) according to the instruction, incubation for 2 hours at 37° C. in CO2 incubator, and record the absorbance at 490 nm using an ELISA plate reader.

[1] = test system: total HDAC enzyme (HeLa extract); experiment: In vitro inhibition of total HDAC enzyme activity (HDAC Fluorimetric Assay/Drug Discovery Kit); type: biochemical
Description: Measurement of In Vitro Inhibition of Total HDAC Enzyme Activity:
The in vitro inhibition of total HDAC enzyme was determined by HDAC Fluorimetric Assay/Drug Discovery Kit (BIOMOL) according to manufacture's instruction. • 1. Add Assay buffer, diluted trichostatin A or test inhibitor to appropriate wells of the microtiter plate. Following table lists examples of various assay types and the additions required for each test.
• 2. Add diluted HeLa extract or other HDAC sample to all wells except those that are to be “No Enzyme Controls” (Blank). • 3. Allow diluted Fluor de Lys™ Substrate and the samples in the microtiter plate to equilibrate to assay temperature (25° C.). • 4. Initiate HDAC reactions by adding diluted substrate (25 μl) to each well and mixing thoroughly. • 5. Allow HDAC reactions to proceed for desired length of time and then stop them by addition of Fluor de Lys™ Developer (50 μl). Incubate plate at room temperature (25° C.) for 10-15 min. • 6. Read samples in a microtiter-plate reading fluorimeter capable of excitation at a wavelength in the range 350-380 nm and detection of emitted light in the range 440-460 nm. Measurement of In Vivo Inhibition of HDAC Subtype Activity: […]

Class I HDAC = experiment: P21 reporter gene assay in HeLa cells; type: cell-based; settings: 24 hours
Description: HDAC subtype selectivity inhibition assay of tested compounds was carried out by several reporter gene assays experiments. Briefly, HeLa cells were seeded in 96-well plates the day before transfection to give a confluence of 50-80%. Cells were transfected with one of reporter gene plasmid containing a promoter sequence or response element upstream of a luciferase gene construct using FuGene6 transfection reagent according to the manufacturer's instruction (Roche). The promoters or response elements including p21-promoter was fused upstream to the luciferase gene reporter construct. For normalizing the transfection efficiency, a GFP expression plasmid was cotransfected. Cells were allowed to express protein for 24 hours followed by addition of individual compounds or the vehicle (DMSO). 24 hours later the cells were harvested, and the luciferase assay and GFP assay were performed using corresponding assay kits according to the manufacturer's instructions (Promega).

A-498 = experiment: Tumor cell proliferation (MTS), A-498; type: cell-based; settings: Homo sapiens, A498; 72 hours, complete medium
Description: (§1) Measurement of In Vivo Cell Proliferation:
(§2) Tumor cells were trypsinized and plated into 96-well plates at 3,000 per well and incubated in complete medium with 10% FBS for 24 hours. Compounds were added over a final concentration range of 100 μmol/L to 100 nmol/L in 0.1% DMSO and incubated for 72 hours in complete medium. The effects on proliferation were determined by addition of MTS reagent (Promega) according to the instruction, incubation for 2 hours at 37° C. in CO2 incubator, and record the absorbance at 490 nm using an ELISA plate reader.

A549 = experiment: Tumor cell proliferation (MTS), A549; type: cell-based; settings: Homo sapiens, 72 hours, complete medium
Description: as §1, §2
(§3) Human Cell Lines are Listed Below:
A549: Non small cell lung carcinoma

Bel-7402 = experiment: Tumor cell proliferation (MTS), Bel-7402; type: cell-based; settings: Homo sapiens, 72 hours, complete medium
Description: as §1, §2, §3
Bel-7402: Hepatocellular carcinoma

HCT-8 = experiment: Tumor cell proliferation (MTS), HCT-8; type: cell-based; settings: Homo sapiens, 72 hours, complete medium
Description: as §1, §2, §3
HCT-8: Ileocecal colorectal adenocarcinoma

MCF-7 = experiment: Tumor cell proliferation (MTS), MCF-7; type: cell-based; settings: Homo sapiens, MCF7; 72 hours, complete medium
Description: as §1, §2, §3
MCF-7: Mammary gland adenocarcinoma

[2] = Body weight in A549 xenograft study (Example 51); type: in vivo, nu/nu mice
Description: The antitumor activity of compound 31 was measured in human A549 lung cancer xenograft model. […] Then the cultured A549 human lung cancer cells were implanted into the armpit of 50 mice. When tumors had reached approximately 6 mm in diameter, the mice were divided into 6 groups randomly. Each group has 8 mice. One group was treated with vehicle. One group was treated with sutent, the positive control drug. […] Each group was dosed orally once a day for 24 days. Tumor volumes as established by caliper measurements were recorded twice per week, along with body weights. At the end of study, the mice were killed, and tumors were weighed. The tumor growth inhibition of each group was calculated using the formula {[(the average tumor weight of vehicle group)-(the average tumor weight of drug group)]/(the average tumor weight of vehicle group)}×100%.

[3] = 5 mg/kg orally once a day for 24 days
[4] = 10 mg/kg orally once a day for 24 days
[5] = 20 mg/kg orally once a day for 24 days
[6] = 40 mg/kg orally once a day for 24 days

T1 sequence (P09619 33-1106): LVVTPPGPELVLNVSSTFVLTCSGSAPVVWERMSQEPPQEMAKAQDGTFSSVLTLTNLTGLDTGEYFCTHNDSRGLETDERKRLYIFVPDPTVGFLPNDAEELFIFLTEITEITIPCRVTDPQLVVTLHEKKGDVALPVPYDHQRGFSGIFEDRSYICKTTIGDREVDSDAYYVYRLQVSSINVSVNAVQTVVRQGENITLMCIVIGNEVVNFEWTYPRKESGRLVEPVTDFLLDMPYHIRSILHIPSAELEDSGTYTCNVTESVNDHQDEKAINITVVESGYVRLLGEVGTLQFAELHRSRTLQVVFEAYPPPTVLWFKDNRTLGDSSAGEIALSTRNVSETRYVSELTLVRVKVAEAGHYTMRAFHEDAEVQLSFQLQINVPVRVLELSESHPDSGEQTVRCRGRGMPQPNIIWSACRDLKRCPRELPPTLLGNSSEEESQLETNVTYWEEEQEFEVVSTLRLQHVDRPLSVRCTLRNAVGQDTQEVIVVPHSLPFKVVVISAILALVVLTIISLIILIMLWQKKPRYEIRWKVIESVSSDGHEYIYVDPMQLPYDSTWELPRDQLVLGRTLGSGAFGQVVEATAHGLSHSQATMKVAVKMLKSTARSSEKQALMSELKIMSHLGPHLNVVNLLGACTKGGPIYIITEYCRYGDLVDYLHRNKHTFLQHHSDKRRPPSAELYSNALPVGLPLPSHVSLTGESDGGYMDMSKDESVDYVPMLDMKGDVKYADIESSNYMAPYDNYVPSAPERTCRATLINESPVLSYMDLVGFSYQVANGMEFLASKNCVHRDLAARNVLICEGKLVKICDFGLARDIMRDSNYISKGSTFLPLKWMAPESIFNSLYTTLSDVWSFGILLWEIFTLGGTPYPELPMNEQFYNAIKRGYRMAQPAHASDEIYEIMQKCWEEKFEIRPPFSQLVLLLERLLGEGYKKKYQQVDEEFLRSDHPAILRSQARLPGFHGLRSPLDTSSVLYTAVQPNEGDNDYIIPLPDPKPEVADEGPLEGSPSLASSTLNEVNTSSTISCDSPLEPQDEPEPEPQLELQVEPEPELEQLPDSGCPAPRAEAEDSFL

GI50 (human PDGFRβ)	% inhibition of total HDAC enzyme activity at 30 μM [1]	Class I HDAC (P21 reporter assay) Fold Induction at 10 μM (Class I HDAC)	GI50 (A-498)	GI50 (A549)	GI50 (Bel-7402)	GI50 (HCT-8)	GI50 (MCF-7)	Compound	GI50 (HUVEC cells)	Body weight (g) end [2, 3]	Body weight (g) start [2, 3]	Body weight (g) end [2, 4]	Body weight (g) start [2, 4]	Body weight (g) end [2, 5]	Body weight (g) start [2, 5]	Body weight (g) end [2, 6]	Body weight (g) start [2, 6]
46 nM	10.1%	1.6 Fold	9.5 µM	17.3 µM	30 µM	6.6 µM	10.2 µM	COc1ccc2c(Oc3ccc4c(C(=O)Nc5ccccc5N)cccc4c3)ccnc2c1 [Example 31, N-(2-aminophenyl)-6-(7-methoxyquinolin-4-yloxy)-1-naphthamide]	5 nM	24.6 ± 1.3 g	21.1 ± 0.6 g	25.1 ± 1.3 g	19.9 ± 1.3 g	24.2 ± 0.7 g	20.6 ± 1.1 g	22.6 ± 2.4 g	20.0 ± 0.9 g
300 nM	39.1%	2.8 Fold	1.9 µM	2.1 µM	2.8 µM	1.5 µM	2 µM	COc1ccc2c(Oc3ccc4c(C(=O)NCc5ccc(C(=O)Nc6ccccc6N)cc5)cccc4c3)ccnc2c1 [Example 33, N-(4-((2-aminophenyl)carbamoyl)benzyl)-6-(7-methoxyquinolin-4-yloxy)-1-naphthamide]	8 nM								
